Data set [1] relates to phosphodiesterase from B16 melanoma tissue (B16 tumour cells). Nature of the data set: PDE inhibition (PDE assay), phosphodiesterase from B16 melanoma tissue, 3H-cAMP substrate. Format: biochemical, mice. The settings on record: concentration which inhibited PDE activity by 50%, 1 μmol/l 3H-cAMP as substrate, read-out: PDE inhibition ED50, B16 tumour cells. The method, then:
The phosphodiesterase was obtained from B16 melanoma tissue from mice by centrifuging the homogenised tissue at 5000×g (15 minutes at 4° C.). The tissues were homogenized by repeated freezing and thawing and homogenisation according to Potter-Elvehjem or by ultrasound. The homogenised supernatant containing the PDE was deep frozen and stored in batches at -25° C.
(§1) The PDE inhibition by the test substances was determined using 1 μmol/1 of ^3 H-cAMP as substrate. The PDE inhibition was determined by measuring the degradation of the substrate ^3 H-cAMP used into ^3 H-AMP by comparison with the control without the test substance. The ^3 H-AMP formed was separated from the remaining ^3 H-cAMP by precipitation with zinc sulphate-barium hydroxide.
(§2) The ED50, i.e. the concentration which inhibited the PDE activity by 50%, was calculated by linear regression analysis.

A short description of data set [2]: Tolerability / lethality in mice. Format: in vivo. The settings on record: 10 animals. From the text:
Moreover, the new compounds are well tolerated.

The target in data set [3] is phosphodiesterase from human thrombocytes. Description: PDE inhibition (PDE assay), phosphodiesterase from human thrombocytes, 3H-cAMP substrate. Format: biochemical. To be noted: concentration which inhibited PDE activity by 50%, 1 μmol/l 3H-cAMP as substrate, read-out: PDE inhibition ED50, Human thrombocytes. The method, then:
Phosphodiesterase was obtained from human thrombocytes by an analogous method.
as §1, §2

For `CSc1ncnc2c(N3CCCC3)nc(N3CCNCC3)nc12` [Substance A, 8-Methylthio-2-piperazino-4-pyrrolidino-pyrimido[5,4-d]pyrimidine], the IC50 in data set [1] worked out at 66 nM; in data set [3], 1600 nM. Moreover, the deaths of animals result in data set [2] (20 mg/kg i.v.) and in data set [2] (100 mg/kg p.o.) was “none of the 10 animals used died” in each case.
As to `CCN(CC)c1nc(N2CCNCC2)nc2c(SC)ncnc12` [Substance B, 4-Diethylamino-8-methylthio-2-piperazino-pyrimido[5,4-d]pyrimidine], the IC50 worked out at 37 nM in data set [1] and 1300 nM in data set [3].
Taken in the same sequence, the figures for `CCCCCCNc1nc(N2CCNCC2)nc2c(SC)ncnc12` [Substance C, 4-n-Hexylamino-8-methylthio-2-piperazino-pyrimido[5,4-d]pyrimidine] were 120 nM and 1200 nM.
Regarding `CSc1ncnc2c(N3CCCCCC3)nc(N3CCNCC3)nc12` [Substance D, 4-Hexamethyleneimino-8-methylthio-2-piperazinopyrimido[5,4-d]pyrimidine], the IC50 was 28 nM in data set [1] and 1700 nM in data set [3].

The record behind these values is patent US4714698A, “8-alkylthio-2-piperazino-pyrimido[5,4-d]-pyrimidines” (Dr. Karl Thomae GmbH, priority 1984, dated 1987).
